# Reference: patent publication US7220402B1, “Alpha-fetoprotein peptides and uses for imaging” (Ordway Research Institute, Inc., priority 2001, dated 2007)
# “Also recorded” adds a separate entry of the source. Square brackets hold non-standard residues; d marks the D form. Ends that are not written are not given here. Hyp = O=C(O)[C@@H]1C[C@@H](O)CN1
# Tests used:
# [1] = system: MCF-7 human breast cancer xenografts; experiment: Human breast cancer xenograft assay, MCF-7; format: in vivo; details: E2-supplemented SCID mice; peptide 1 μg i.p. twice a day, tamoxifen 50 μg i.p. once a day; 30-day observation
# Protocol: FIG. 5 illustrates the anti-estrotrophic activity of hydroxyproline-substituted linear peptide against MCF-7 human breast cancer xenografts. There were five to eight replicate mice per treatment group. Estrogen was provided via a slow release pellet implanted subcutaneously. Peptide was given twice a day i.p. at a dose of 1 μg per mouse. Tumor volumes in each mouse were measured at the time of tumor implantation and at 10-day intervals thereafter during survival laparotomies.
# FIGS. 9a and 9b illustrate the effect of AFP-derived peptide on growth of estrogen-receptor-positive MCF-7 and MCF-7/Tarn human breast cancer xenografts. Tumors were implanted as described in Materials and Methods. […] Tumor volumes in each mouse were measured at the time of tumor implantation, again at day 15 after tumor implantation during survival laparotomy and again at day 30 after tumor implantation during necropsy. […]
# (§1) Human Breast Cancer Xenograft Assay. […] Tumor growth was monitored during survival laparotomy at 10 day intervals by measurement of the diameters of the short (d) and long axes (D) of each tumor, using a dissecting microscope equipped with an ocular micrometer. Tumor volumes were calculated using the formula (π/6) (d)^2 D, assuming the tumor shape to be an ellipsoid of revolution around its long axis (D). […] Mean tumor volume±standard error in each group was calculated for display of growth curves. […]
# [2] = system: MCF-7 subline made resistant to tamoxifen in culture (MCF-7/Tam xenografts); experiment: Human breast cancer xenograft assay, tamoxifen-resistant MCF-7 subline; format: in vivo; details: E2-supplemented SCID mice; peptide 1 μg i.p. twice a day, tamoxifen 50 μg i.p. once a day; day 30
# Protocol: FIGS. 9a and 9b illustrate the effect of AFP-derived peptide on growth of estrogen-receptor-positive MCF-7 and MCF-7/Tarn human breast cancer xenografts. Tumors were implanted as described in Materials and Methods. Estrogen (●) was provided via a slow-release pellet of estradiol (E2) implanted s.c. Peptide (▴) was given twice a day i.p. at a dose of 1 μg per injection. […] Tumor volumes in each mouse were measured at the time of tumor implantation, again at day 15 after tumor implantation during survival laparotomy and again at day 30 after tumor implantation during necropsy. There was a minimum of 5 mice per group.
# Cell Lines. T47D and MDA-231 human breast cancer cell lines were purchased from the American Type Culture Collection (Manassas, Va.). […]
# as §1
# [3] = system: estrogen-receptor-positive T47D human breast cancer xenografts; experiment: Human breast cancer xenograft assay, T47D; format: in vivo; details: E2-supplemented SCID mice; peptide 1 μg i.p. twice a day; 30-day observation
# [4] = system: estrogen-receptor-negative MDA-MB-231 human breast cancer xenografts; experiment: Human breast cancer xenograft assay, MDA-MB-231; format: in vivo; details: SCID mice, peptide 1 μg i.p. twice a day, tamoxifen 50 μg i.p. once a day, 30-day observation
# [5] = system: MCF-7 human breast cancer xenografts; details: Bennett et al. 1998; cited from earlier work
# immature mouse uterus = experiment: Uterotrophic effect of test agent alone on immature mouse uterus; details: agent alone i.p.; peptide up to 10 μg/mouse
# Protocol: Various doses indicated on the abscissa of each test agent were injected i.p. Twenty-two hours later uteri were harvested and weighed. Mean normalized uterine weights (mg uterine weight/g mouse body weight) for each group are shown on the ordinate. In FIG. 13b, Pep (1 μg) or vehicle (saline, 0.2 ml) were injected i.p. One hour later E2 (0.5 μg) or Tam (1.0 μg) were injected i.p. Twenty-two hours later uteri were harvested and weighed.
# A bioassay for anti-estrotrophic activity was performed using an immature mouse uterine growth assay (22). Swiss/Webster female mice, 6–8 g in body weight (13–15 days old), were obtained from Taconic Farms (Germantown, N.Y.). […] In a typical experiment, each group received two sequential intraperitoneal injections spaced one hour apart. Test material or vehicle control for that material was contained in the first injectant. Estradiol (E2) or vehicle control for E2 was contained in the second injectant. Twenty-two hours after the second injection, uteri were dissected, trimmed free of mesenteries, and immediately weighed. […] Experiments employed a minimum of five mice per group, and the mean normalized uterine weight±standard error for each group was calculated. Percent growth inhibition in a test group was calculated from the normalized uterine wet weights as described below. […]
# [6] = system: E2-stimulated growth of immature mouse uterus; experiment: Immature mouse uterine growth assay (anti-estrotrophic activity); format: in vivo; details: for inhibition of the uterotrophic effect of estradiol: Pep 1 μg i.p. one hour before E2 0.5 μg i.p., uteri weighed 22 h later (FIG. 13b); for optimal dose for inhibition of estrogen-stimulated growth of mouse uterus: i.p., biphasic dose-response (FIG. 1a)
# Protocol: FIGS. 1a and 1b illustrate the anti-uterotrophic activity of octapeptide, SEQ ID NO: 2, […], measured in the immature mouse uterine growth assay. Peptide or vehicle control was injected i.p. into immature female Swiss mice. One hour later 0.5 μg of E2 vehicle control was injected i.p. into these mice. Twenty-two hours later, uteri were dissected and weighed. Percent inhibition of E2-stimulated growth of uterus by peptide was calculated as described in Materials and Methods. There were five to eight replicate mice per treatment group.
# (§2) Immature Mouse Uterine Growth Assay.
# Differences between groups were evaluated, employing the non-parametric Wilcoxon Sum of Ranks test (one-sided). In all cases, growth inhibitions that were greater than 25% were significant at p≦0.05.
# estrogen receptor = molecular target: T1, estrogen receptor (Oryctolagus cuniculus, UniProt G1SML6); experiment: Assessment of estrogen receptor antagonism ([3H]estradiol binding, rabbit uterine cytosol)
# T1 sequence (G1SML6 1-598): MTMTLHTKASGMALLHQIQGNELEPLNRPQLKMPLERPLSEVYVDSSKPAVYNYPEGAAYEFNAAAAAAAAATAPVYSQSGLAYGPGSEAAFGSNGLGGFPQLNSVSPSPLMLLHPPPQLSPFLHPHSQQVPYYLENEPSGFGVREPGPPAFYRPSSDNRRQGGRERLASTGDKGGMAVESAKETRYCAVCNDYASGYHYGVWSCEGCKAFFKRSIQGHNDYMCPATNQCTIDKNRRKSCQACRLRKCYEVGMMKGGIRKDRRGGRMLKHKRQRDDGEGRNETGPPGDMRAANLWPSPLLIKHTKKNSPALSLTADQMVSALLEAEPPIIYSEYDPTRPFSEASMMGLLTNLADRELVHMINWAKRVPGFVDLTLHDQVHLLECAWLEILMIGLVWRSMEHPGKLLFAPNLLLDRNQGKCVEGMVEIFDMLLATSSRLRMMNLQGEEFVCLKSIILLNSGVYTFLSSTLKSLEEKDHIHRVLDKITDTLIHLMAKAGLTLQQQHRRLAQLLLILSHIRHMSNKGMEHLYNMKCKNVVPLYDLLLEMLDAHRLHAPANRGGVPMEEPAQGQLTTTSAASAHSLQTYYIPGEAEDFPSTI
# Protocol: (§3) Rabbit uterine cytosol was used as a source of estrogen receptor.
# as §3
# Assessment of Estrogen Receptor Antagonism. Commercially obtained rabbit uteri (Pel-Freez Biological, Rogers, Ark.) were used as a source of estrogen receptor. […] Total count tubes received 20 μl of [3H]estradiol and 180 μl of assay buffer. After incubation overnight at 4° C., all but the total count tubes received 300 μl of dextran-coated charcoal suspension; tubes were agitated for 15 min and then centrifuged (1,000×g) for 15 min. Supernatants were decanted into counting vials, scintillant was added, and protein-bound tritium was determined by liquid scintillation counting.
# [7] = system: tamoxifen-stimulated growth of immature mouse uterus; experiment: Inhibition of tamoxifen-stimulated growth of immature mouse uterus; format: in vivo; details: Pep 1 μg i.p. one hour before Tam 1.0 μg i.p., uteri weighed 22 h later
# Excerpt: as §2
# [8] = Preliminary pharmacokinetic studies in mice; format: in vivo
molecule,measurement,setting,value
"CC/C(=C(\c1ccccc1)c1ccc(OCCN(C)C)cc1)c1ccccc1 [tamoxifen, reference compound]",effect on growth (tumor volume vs E2 alone) of MCF-7 xenografts,[1],prevented growth; also recorded: no increase in tumor volume
same,effect on growth (tumor volume vs E2 alone) of tamoxifen-resistant MCF-7 subline xenografts,[2],resistant to tamoxifen in vivo; also recorded: only minimally effective
same,effect on growth (tumor volume vs E2 alone) of T47D xenografts,[3],prevented growth
same,effect on growth of MDA-MB-231 xenografts,[4],Neither peptide nor tamoxifen were effective; also recorded: did not affect the growth
same,effect on MCF-7 breast cancer xenograft growth in an earlier study,[5],shown to stop MCF-7 breast cancer xenograft growth
same,uterotrophic effect on immature mouse uterus,immature mouse uterus,stimulate the growth of the immature mouse uterus
EMTOVNOG (EMT[Hyp]VN[Hyp]G; listed as Homo sapiens) [SEQ ID NO: 4],inhibition of the uterotrophic effect of estradiol,[6]; listed as Pep,significantly different
same,inhibition of the uterotrophic effect of estradiol,[6]; listed as peptide,inhibited
same,effect on growth (tumor volume vs E2 alone) of MCF-7 xenografts,[1],prevented growth; also recorded: no significant increase in tumor volume
same,effect on growth (tumor volume vs E2 alone) of tamoxifen-resistant MCF-7 subline xenografts,[2],completely prevented the xenograft growth; also recorded: completely stopped the growth
same,effect on growth (tumor volume vs E2 alone) of T47D xenografts,[3],completely prevented tumor growth
same,effect on growth of MDA-MB-231 xenografts,[4],Neither peptide nor tamoxifen were effective; also recorded: no effect on the growth
same,effect on growth of MDA-MB-231 xenografts,[4]; listed as AFP-derived peptide,no differences in tumor volumes between any of the groups
same,competition/interference with estrogen binding to the estrogen receptor,"estrogen receptor; cell-free system, no concentration stated",does not interfere
same,interference with E2 binding to ER,estrogen receptor; peptide concentration range of 10^−10M to 10^−5M,no interference
same,inhibition of the uterotrophic effect of tamoxifen,[7],significantly inhibited
same,inhibition of the uterotrophic effect of tamoxifen,[7]; listed as peptide,inhibited
same,biological half-life,[8],two to three
"EMTPVNPG (listed as Homo sapiens) [SEQ ID NO: 6, amino acids 472–479 of alpha-fetoprotein]",optimal dose for inhibition of estrogen-stimulated growth of mouse uterus,[6],~1 μg/mouse
same,biological activity of stored inactive peptide after brief treatment with 4M urea,[6],regenerated
QMTPVNPG (listed as Homo sapiens) [SEQ ID NO: 2],% Inhibition of E2-Stimulated Growth of Immature Mouse Uterus ± SE,"[6]; Storage Time: Fresh, 1 μg peptide i.p.",38 ± 3%
same,% Inhibition of E2-Stimulated Growth of Immature Mouse Uterus ± SE,"[6]; Stored over 1 year (lyophilized, −20° C.), 1 μg peptide i.p.",0 ± 2%
same,% Inhibition of E2-Stimulated Growth of Immature Mouse Uterus ± SE,"[6]; after Urea Treatment (4 M urea, room temperature, one hour) of agent II (stored over 1 year) or IV (fresh), 1 μg i.p.",34 ± 4%
same,anti-estrotrophic activity after storage (shelf-life),"[6]; after five weeks of storage at −20° C. lyophilized, 1 μg per mouse (FIG. 1b)",diminished to insignificant levels
same,optimal dose for inhibition of estrogen-stimulated growth of mouse uterus,[6],1 μg/mouse
same,biological activity of higher molecular weight gel-filtration fraction of aged peptide,"[6]; left side of peak (FIG. 2b), 1 μg i.p.",biologically inactive
same,biological activity of lower molecular weight gel-filtration fraction of aged peptide,"[6]; right side of peak (FIG. 2b), 1 μg i.p.",active
same,biological activity of aged peptide,[6]; stored in the lyophilized state at −20° C. for over one year,completely biologically inactive
same,biological activity of stored inactive peptide after brief treatment with 4M urea,[6],restored its biological activity
